Test results as given in patent US20220251141A1, “IMMUNOMODULATORS” (Bristol-Myers Squibb Company, priority 2019, published 2022).
Bridge positions count the residues as written; N and C are the ends. Square brackets hold non-standard residues; d marks the D form. Peptide text beside a SMILES is read from it. * marks the point of attachment. Trp(1-CH2COOH) = N[C@@H](Cc1cn(CC(=O)O)c2ccccc12)C(=O)O; Phe(4-F) = N[C@@H](Cc1ccc(F)cc1)C(=O)O; Hyp = O=C(O)[C@@H]1C[C@@H](O)CN1; NMeNle = CCCC[C@H](NC)C(=O)O; NMeC = CN[C@@H](CS)C(=O)O; Pip = O=C(O)[C@@H]1CCCCN1; Dab = NCC[C@H](N)C(=O)O; Dap = NC[C@H](N)C(=O)O; Piv = CC(C)(C)C(=O)*

Target: T1, PD-1/PD-L1 (Homo sapiens, UniProt Q9NZQ7)
T1 construct: TVMV protease site linker (C); made in house; host or cells: HEK293T cells
Test: PD-1/PD-L1 Homogenous Time-Resolved Fluorescence (HTRF) binding assay
Conditions: PD-L1-His 10 nM final, PD-1-Ig 20 nM final; inhibitors pre-incubated with PD-L1-His for 15 m
Procedure, shortened: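 Compounds pre-incubated 15 min with human PD-L1(18-239)-His (10 nM final), then PD-1(25-167)-Ig (20 nM final) added for 15 min, in dPBS with 0.1% BSA and 0.05% Tween-20. Eu-cryptate anti-Ig (1 nM) and APC anti-His (20 nM) added, 30 min equilibration, 665/620 nm ratio read; IC50 reported.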

Row | Structure (SMILES) | IC50
1 | CCCC[C@H]1C(=O)N(C)[C@@H](CCCC)C(=O)N[C@@H](CC(C)C)C(=O)N[C@H](C(N)=O)CSCC(=O)N[C@@H](Cc2ccc(F)cc2)C(=O)N2CCCC[C@H]2C(=O)N[C@@H](CC(N)=O)C(=O)N2CCC[C@H]2C(=O)N[C@@H](CNC(=O)C(C)(C)C)C(=O)N[C@@H](CC(C)C)C(=O)N2C[C@H](O)C[C@H]2C(=O)N[C@@H](Cc2c[nH]c3ccccc23)C(=O)N[C@@H](CCN)C(=O)N[C@@H](Cc2cn(CC(=O)O)c3ccccc23)C(=O)N1C [Example 20300] ({CH2CO}-[Phe(4-F)][Pip]NP[Dap](Piv)L[Hyp]W[Dab][Trp(1-CH2COOH)][NMeNle][NMeNle]LC-NH2; thioether N-14) | 38.2 nM
2 | CCCC[C@H]1C(=O)N(C)[C@@H](CCCC)C(=O)N[C@@H](CC(C)C)C(=O)N(C)[C@H](C(N)=O)CSCC(=O)N[C@@H](Cc2ccc(F)cc2)C(=O)N2CCCC[C@H]2C(=O)N[C@@H](CC(=O)N(C)C)C(=O)N2CCC[C@H]2C(=O)N[C@@H](CNC(=O)C(C)(C)C)C(=O)N[C@@H](CC(C)C)C(=O)N2C[C@H](O)C[C@H]2C(=O)N[C@@H](Cc2c[nH]c3ccccc23)C(=O)N[C@@H](CO)C(=O)N[C@@H](Cc2cn(CC(=O)O)c3ccccc23)C(=O)N1C [Example 20310] ({CH2CO}-[Phe(4-F)][Pip]D(NMe2)P[Dap](Piv)L[Hyp]WS[Trp(1-CH2COOH)][NMeNle][NMeNle]L[NMeC]-NH2; thioether N-14) | 18 nM
